Data reported in patent publication US11986471B2, “Compounds and methods of use” (Tango Therapeutics, Inc., priority 2018, dated 2024).
One block for each molecule: values may come before it.

What was measured:
PRMT5 [1] = target: T1, PRMT5 (Homo sapiens, UniProt O14744); assay: PRMT5 IC50 assay in the presence of SAM as cofactor; format: biochemical
T1 construct: purchased Viva (custom protein)
Summary of the method: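 Potency against PRMT5 is compared across cofactor states, where IC50 equals Ki×1.5 with SAM present and Ki×13.5 with MTA present.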

PRMT5 [2] = target: T1, PRMT5; assay: PRMT5 IC50 assay with no cofactor; format: biochemical; conditions: read-out: No Co-factor IC50
Summary of the method: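 Three cofactor conditions are run: SAM-bound, MTA-bound and cofactor-free enzyme. IC50 is read from each; for the SAM and MTA arms it is divided by 1.5 and 13.5 respectively to give Ki.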

PRMT5 [3] = target: T1, PRMT5; assay: PRMT5 IC50 assay in the presence of MTA as cofactor; format: biochemical; conditions: for IC50: PRMT5, MTA as cofactor; for SAM/MTA Ratio: ratio between Ki in the presence of SAM and Ki in the presence of MTA
Summary of the method: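 Three cofactor conditions tested for PRMT5 inhibition: none, MTA and SAM, each giving an IC50. For conversion to Ki, the MTA-condition IC50 is divided by 13.5 and the SAM-condition IC50 by 1.5, and the two Ki values are expressed as a SAM/MTA ratio.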

HAP1 MTAP-intact = assay: SDMA in-cell western assay, HAP1 MTAP-intact cell line; format: cell-based; conditions: Homo sapiens
Summary of the method: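 HAP1 isogenic pair: endogenous MTAP vs MTAP-null. Readout SDMA by in-cell western; IC50 per line. Ratio ≥3 fold = MTAP-selective.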

HAP1 MTAP-deleted = assay: SDMA in-cell western assay, HAP1 MTAP-deleted cell line; format: cell-based; conditions: for IC50: Homo sapiens, HAP1 MTAP-deleted cell line; for MTAP Intact/Deleted Ratio: IC50 ratio HAP1 MTAP-intact / HAP1 MTAP-deleted
Summary of the method: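 IC50 from SDMA in-cell western; HAP1 line lacking MTAP (null), paired isogenically with MTAP-intact HAP1 expressing endogenous MTAP.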

T1 sequence (O14744 whole entry): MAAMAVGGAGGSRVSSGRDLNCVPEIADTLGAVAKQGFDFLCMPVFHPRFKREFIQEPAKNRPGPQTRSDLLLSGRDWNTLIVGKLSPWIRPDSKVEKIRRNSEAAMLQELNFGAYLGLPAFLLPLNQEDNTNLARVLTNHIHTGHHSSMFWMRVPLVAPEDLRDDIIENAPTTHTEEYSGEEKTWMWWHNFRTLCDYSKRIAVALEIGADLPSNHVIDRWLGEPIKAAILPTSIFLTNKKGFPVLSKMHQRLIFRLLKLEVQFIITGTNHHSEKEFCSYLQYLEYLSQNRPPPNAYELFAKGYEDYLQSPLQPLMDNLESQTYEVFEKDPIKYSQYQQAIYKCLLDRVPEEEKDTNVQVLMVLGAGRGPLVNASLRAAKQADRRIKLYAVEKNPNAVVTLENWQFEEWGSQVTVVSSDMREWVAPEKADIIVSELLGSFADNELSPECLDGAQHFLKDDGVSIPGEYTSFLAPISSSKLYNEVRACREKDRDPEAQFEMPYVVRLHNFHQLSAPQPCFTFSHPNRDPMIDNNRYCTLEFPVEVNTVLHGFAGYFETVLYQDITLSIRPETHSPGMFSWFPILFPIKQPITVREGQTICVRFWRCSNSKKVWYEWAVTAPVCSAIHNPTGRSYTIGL
T1 sequence (Q9BQA1 whole entry partner): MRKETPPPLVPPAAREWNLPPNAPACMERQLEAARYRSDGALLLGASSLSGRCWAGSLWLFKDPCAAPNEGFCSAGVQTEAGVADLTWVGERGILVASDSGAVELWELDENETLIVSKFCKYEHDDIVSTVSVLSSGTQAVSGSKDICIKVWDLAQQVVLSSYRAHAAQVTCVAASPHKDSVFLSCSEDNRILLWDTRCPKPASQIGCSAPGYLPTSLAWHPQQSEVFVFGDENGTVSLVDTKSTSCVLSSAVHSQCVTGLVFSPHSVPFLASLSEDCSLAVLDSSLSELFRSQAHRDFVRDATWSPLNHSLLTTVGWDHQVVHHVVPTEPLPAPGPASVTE

Compound: CCC(=O)N1CCN(c2cc(C(=O)NC[C@H](O)CN3CCc4cc(OCc5ocnc5C)ccc4C3)cc(NC3CCC3)n2)CC1 [Compound 389, 2-(cyclobutylamino)-N-[(2S)-2-hydroxy-3-{6-[(4-methyl-1,3-oxazol-5-yl)methoxy]-1,2,3,4-tetrahydroisoquinolin-2-yl}propyl]-6-(4-propanoylpiperazin-1-yl)pyridine-4-carboxamide]
IC50 (PRMT5 [1]): 50 to 500 nM
IC50 (PRMT5 [2]): 500 to 5000 nM
IC50 (PRMT5 [3]): 50 to 500 nM
SAM/MTA Ratio (PRMT5 [3]): A (a Ki ratio greater than or equal to 10 fold between the Ki in the presence of SAM and the Ki in the presence of MTA)
IC50 (HAP1 MTAP-intact): < 1000 nM
IC50 (HAP1 MTAP-deleted): < 1000 nM
MTAP Intact/Deleted Ratio (HAP1 MTAP-deleted): B* (an IC50 ratio greater than or equal to 3 fold but lower than 10 fold between the IC50 in the HAP1 MTAP-intact cell line and the HAP1 MTAP-deleted cell line)

Compound: CCCN(C)c1nc(NC2COC2)cc(C(=O)NC[C@H](O)CN2CCc3cc(OCc4ocnc4C)ccc3C2)n1 [Compound 390, N-[(2S)-2-hydroxy-3-{6-[(4-methyl-1,3-oxazol-5-yl)methoxy]-1,2,3,4-tetrahydroisoquinolin-2-yl}propyl]-2-[methyl(propyl)amino]-6-[(oxetan-3-yl)amino]pyrimidine-4-carboxamide]
IC50 (PRMT5 [1]): 50 to 500 nM
IC50 (PRMT5 [2]): 500 to 5000 nM
IC50 (PRMT5 [3]): 50 to 500 nM
SAM/MTA Ratio (PRMT5 [3]): A (a Ki ratio greater than or equal to 10 fold between the Ki in the presence of SAM and the Ki in the presence of MTA)
IC50 (HAP1 MTAP-intact): < 1000 nM
IC50 (HAP1 MTAP-deleted): < 1000 nM
MTAP Intact/Deleted Ratio (HAP1 MTAP-deleted): C* (an IC50 ratio of less than 3 fold between the IC50 in the HAP1 MTAP-intact cell line and the HAP1 MTAP-deleted cell line)

Compound: Cc1ncoc1COc1ccc2c(c1C)CCN(C[C@@H](O)CNC(=O)c1cc(NC3COC3)nc(N3CCCCC3)n1)C2 [Compound 391, N-[(2S)-2-hydroxy-3-{5-methyl-6-[(4-methyl-1,3-oxazol-5-yl)methoxy]-1,2,3,4-tetrahydroisoquinolin-2-yl}propyl]-6-[(oxetan-3-yl)amino]-2-(piperidin-1-yl)pyrimidine-4-carboxamide]
IC50 (PRMT5 [1]): 50 to 500 nM
IC50 (PRMT5 [2]): ≥ 5000 nM
IC50 (PRMT5 [3]): 50 to 500 nM
SAM/MTA Ratio (PRMT5 [3]): A (a Ki ratio greater than or equal to 10 fold between the Ki in the presence of SAM and the Ki in the presence of MTA)
IC50 (HAP1 MTAP-intact): ≥ 10000 nM
IC50 (HAP1 MTAP-deleted): < 1000 nM
MTAP Intact/Deleted Ratio (HAP1 MTAP-deleted): A* (an IC50 ratio greater than or equal to 10 fold between the IC50 in the HAP1 MTAP-intact cell line and the HAP1 MTAP-deleted cell line)

Compound: Cc1ncoc1COc1ccc2c(c1)CCN(C[C@@H](O)CNC(=O)c1ccc(OC3CCN(Cc4ccccc4)CC3)cc1)C2 [Compound 392]
IC50 (PRMT5 [1]): 50 to 500 nM
IC50 (PRMT5 [2]): 500 to 5000 nM
IC50 (PRMT5 [3]): 50 to 500 nM
SAM/MTA Ratio (PRMT5 [3]): A (a Ki ratio greater than or equal to 10 fold between the Ki in the presence of SAM and the Ki in the presence of MTA)
IC50 (HAP1 MTAP-intact): < 1000 nM
IC50 (HAP1 MTAP-deleted): < 1000 nM
MTAP Intact/Deleted Ratio (HAP1 MTAP-deleted): C* (an IC50 ratio of less than 3 fold between the IC50 in the HAP1 MTAP-intact cell line and the HAP1 MTAP-deleted cell line)

Compound: Cc1c(OCc2cnco2)ccc2c1CCN(C[C@@H](O)CNC(=O)c1cc(NC3CCCC3)ncn1)C2 [Compound 393, 6-(cyclopentylamino)-N-[(2S)-2-hydroxy-3-{5-methyl-6-[(1,3-oxazol-5-yl)methoxy]-1,2,3,4-tetrahydroisoquinolin-2-yl}propyl]pyrimidine-4-carboxamide]
IC50 (PRMT5 [1]): 500 to 5000 nM
IC50 (PRMT5 [2]): ≥ 5000 nM
IC50 (PRMT5 [3]): 500 to 5000 nM
SAM/MTA Ratio (PRMT5 [3]): A (a Ki ratio greater than or equal to 10 fold between the Ki in the presence of SAM and the Ki in the presence of MTA)
IC50 (HAP1 MTAP-intact): ≥ 10000 nM
IC50 (HAP1 MTAP-deleted): ≥ 10000 nM
MTAP Intact/Deleted Ratio (HAP1 MTAP-deleted): C* (an IC50 ratio of less than 3 fold between the IC50 in the HAP1 MTAP-intact cell line and the HAP1 MTAP-deleted cell line)

Compound: CCN1CCN(c2cc(C(=O)NC[C@H](O)CN3CCc4c(ccc(OCc5ocnc5C)c4C)C3)cc(NC3CCC3)n2)CC1 [Compound 394, 2-(cyclobutylamino)-6-(4-ethylpiperazin-1-yl)-N-[(2S)-2-hydroxy-3-{5-methyl-6-[(4-methyl-1,3-oxazol-5-yl)methoxy]-1,2,3,4-tetrahydroisoquinolin-2-yl}propyl]pyridine-4-carboxamide]
IC50 (PRMT5 [1]): 50 to 500 nM
IC50 (PRMT5 [2]): 500 to 5000 nM
IC50 (PRMT5 [3]): 50 to 500 nM
SAM/MTA Ratio (PRMT5 [3]): A (a Ki ratio greater than or equal to 10 fold between the Ki in the presence of SAM and the Ki in the presence of MTA)
IC50 (HAP1 MTAP-intact): ≥ 10000 nM
IC50 (HAP1 MTAP-deleted): < 1000 nM
MTAP Intact/Deleted Ratio (HAP1 MTAP-deleted): A* (an IC50 ratio greater than or equal to 10 fold between the IC50 in the HAP1 MTAP-intact cell line and the HAP1 MTAP-deleted cell line)

Compound: O=C(NC[C@H](O)CN1CCc2cc(OCc3cnco3)ccc2C1)c1cc(NC2CCCCC2)ncn1 [Compound 395, (S)-6-(cyclohexylamino)-N-(2-hydroxy-3-(6-(oxazol-5-ylmethoxy)-3,4-dihydroisoquinolin-2(1H)-yl)propyl)pyrimidine-4-carboxamide]
IC50 (PRMT5 [1]): 500 to 5000 nM
IC50 (PRMT5 [2]): ≥ 5000 nM
IC50 (PRMT5 [3]): 50 to 500 nM
SAM/MTA Ratio (PRMT5 [3]): A (a Ki ratio greater than or equal to 10 fold between the Ki in the presence of SAM and the Ki in the presence of MTA)
IC50 (HAP1 MTAP-intact): ≥ 10000 nM
IC50 (HAP1 MTAP-deleted): 1000 to 10000 nM

Now from value to molecule, other results behind:

IC50 (PRMT5 [1]): 50 to 500 nM
IC50 (PRMT5 [2]): 500 to 5000 nM
IC50 (PRMT5 [3]): 50 to 500 nM
IC50 (HAP1 MTAP-intact): 1000 to 10000 nM
IC50 (HAP1 MTAP-deleted): < 1000 nM
Compound: Cc1ncoc1COc1ccc2c(c1)CCN(C[C@@H](O)CNC(=O)c1cc(NC3COC3)nc(N3CCN(C(C)(C)C)CC3)n1)C2 [Compound 396, 2-(4-tert-butylpiperazin-1-yl)-N-[(2S)-2-hydroxy-3-(6-[(4-methyl-1,3-oxazol-5-yl)methoxy]-1,2,3,4-tetrahydroisoquinolin-2-yl}propyl]-6-[(oxetan-3-yl)amino]pyrimidine-4-carboxamide]
SAM/MTA Ratio (PRMT5 [3]): A (a Ki ratio greater than or equal to 10 fold between the Ki in the presence of SAM and the Ki in the presence of MTA)
MTAP Intact/Deleted Ratio (HAP1 MTAP-deleted): C* (an IC50 ratio of less than 3 fold between the IC50 in the HAP1 MTAP-intact cell line and the HAP1 MTAP-deleted cell line)

IC50 (PRMT5 [1]): 50 to 500 nM
IC50 (PRMT5 [2]): 500 to 5000 nM
IC50 (PRMT5 [3]): 50 to 500 nM
IC50 (HAP1 MTAP-intact): 1000 to 10000 nM
IC50 (HAP1 MTAP-deleted): < 1000 nM
Compound: CCC(=O)N1CCN(c2cc(C(=O)NC[C@H](O)CN3CCc4cc(OCc5cnco5)ccc4C3)cc(NC3CCC3)n2)CC1 [Compound 397, (S)-2-(cyclobutylamino)-N-(2-hydroxy-3-(6-(oxazol-5-ylmethoxy)-3,4-dihydroisoquinolin-2(1H)-yl)propyl)-6-(4-propionylpiperazin-1-yl)isonicotinamide]
SAM/MTA Ratio (PRMT5 [3]): A (a Ki ratio greater than or equal to 10 fold between the Ki in the presence of SAM and the Ki in the presence of MTA)
MTAP Intact/Deleted Ratio (HAP1 MTAP-deleted): C* (an IC50 ratio of less than 3 fold between the IC50 in the HAP1 MTAP-intact cell line and the HAP1 MTAP-deleted cell line)

IC50 (PRMT5 [1]): 50 to 500 nM
IC50 (PRMT5 [2]): ≥ 5000 nM
IC50 (PRMT5 [3]): 50 to 500 nM
IC50 (HAP1 MTAP-intact): ≥ 10000 nM
IC50 (HAP1 MTAP-deleted): 1000 to 10000 nM
Compound: COCCN(C)c1nc(NC2COC2)cc(C(=O)NC[C@H](O)CN2CCc3c(ccc(OCc4ocnc4C)c3C)C2)n1 [Compound 398, N-[(2S)-2-hydroxy-3-{5-methyl-6-[(4-methyl-1,3-oxazol-5-yl)methoxy]-1,2,3,4-tetrahydroisoquinolin-2-yl}propyl]-2-[(2-methoxyethyl)(methyl)amino]-6-[(oxetan-3-yl)amino]pyrimidine-4-carboxamide]
SAM/MTA Ratio (PRMT5 [3]): A (a Ki ratio greater than or equal to 10 fold between the Ki in the presence of SAM and the Ki in the presence of MTA)
MTAP Intact/Deleted Ratio (HAP1 MTAP-deleted): B* (an IC50 ratio greater than or equal to 3 fold but lower than 10 fold between the IC50 in the HAP1 MTAP-intact cell line and the HAP1 MTAP-deleted cell line)

IC50 (PRMT5 [1]): 500 to 5000 nM
IC50 (PRMT5 [2]): ≥ 5000 nM
IC50 (PRMT5 [3]): 50 to 500 nM
IC50 (HAP1 MTAP-intact): 1000 to 10000 nM
IC50 (HAP1 MTAP-deleted): < 1000 nM
Compound: O=C(NC[C@H](O)CN1CCc2cc(OCc3cnco3)ccc2C1)c1ccnc(Nc2cccnc2)c1 [Compound 399, (S)—N-(2-hydroxy-3-(6-(oxazol-5-ylmethoxy)-3N-dihydroisoquinolin-2(1H)-yl)propyl)-2-(pyridin-3-ylamino)isonicotinamide]
SAM/MTA Ratio (PRMT5 [3]): A (a Ki ratio greater than or equal to 10 fold between the Ki in the presence of SAM and the Ki in the presence of MTA)
MTAP Intact/Deleted Ratio (HAP1 MTAP-deleted): B* (an IC50 ratio greater than or equal to 3 fold but lower than 10 fold between the IC50 in the HAP1 MTAP-intact cell line and the HAP1 MTAP-deleted cell line)

IC50 (PRMT5 [1]): 50 to 500 nM
IC50 (PRMT5 [2]): 500 to 5000 nM
IC50 (PRMT5 [3]): 50 to 500 nM
IC50 (HAP1 MTAP-intact): 1000 to 10000 nM
IC50 (HAP1 MTAP-deleted): < 1000 nM
Compound: Cc1ncoc1COc1ccc2c(c1)CCN(C[C@@H](O)CNC(=O)c1cc(NC3COC3)nc(N3CCN(C(=O)C4CC4)CC3)n1)C2 [Compound 400, 2-(4-cyclopropanecarbonylpiperazin-1-yl)-N-[(2S)-2-hydroxy-3-{6-[(4-methyl-1,3-oxazol-5-yl)methoxy]-1,2,3,4-tetrahydroisoquinolin-2-yl}propyl]-6-[(oxetan-3-yl)amino]pyrimidine-4-carboxamide]
SAM/MTA Ratio (PRMT5 [3]): A (a Ki ratio greater than or equal to 10 fold between the Ki in the presence of SAM and the Ki in the presence of MTA)
MTAP Intact/Deleted Ratio (HAP1 MTAP-deleted): B* (an IC50 ratio greater than or equal to 3 fold but lower than 10 fold between the IC50 in the HAP1 MTAP-intact cell line and the HAP1 MTAP-deleted cell line)
